From patent publication US20220257569A1, “INDOLE-OXADIAZOLE COMPOUNDS AND THEIR THERAPEUTIC USE” (THE GOVERNING COUNCIL OF THE UNIVERSITY OF TORONTO, priority 2018, published 2022)

How the values were obtained:
CB1 receptor [1] = target: T1, CB1 receptor (Mus musculus, UniProt P47746); set-up: from the CB1 receptor in mouse brain membranes; from tissue; host or cells: mouse brain membranes; conditions: mouse brain membranes; cited from earlier work
CB1 receptor [2] = target: T1, CB1 receptor; conditions: equilibrium binding assay, cited from earlier work; for effect on binding of CP55940: agonist CP55940
[3] = Human liver microsomal stability assay; format: in vitro ADME; conditions: both sexes, pH 7.4; pooled human liver microsomes 0.5 mg/mL, 3 μM compound, NADPH, 37° C., 45 min; read-out: Microsomal stability T1/2 Human
Protocol: (§1) Metabolic stability of indole-oxadiazole derivatives of Formula I was measured by determination of the rate of compound disappearance when incubated in the presence of human or rat liver microsomes. Liver microsomes are prepared from the endoplasmic reticulum of hepatocytes and are the primary source of the most important enzymes (cytochrome P450) involved in drug metabolism. Study of drug stability in the presence of liver microsomes is accepted as a valuable model permitting rapid prediction of in vivo drug stability.
(§2) Human and rat liver microsomes were obtained from commercial sources. Test compounds (3 μM) were incubated with pooled liver microsomes (male and female). Samples were incubated for a 45 minute period and removed at 5 time points and test compounds were analysed by LC-MS/MS.
(§3) Microsomes (final protein concentration 0.5 mg/mL), 0.1 M phosphate buffer pH 7.4, and test compound (final concentration 3 μM; diluted from 10 mM stock solution to give a final DMSO concentration of 0.25%) were incubated at 37° C. prior to the addition of NADPH (final concentration 1 mM) to initiate the reaction. The final incubation volume was 25 μL. A control incubation was included for each compound tested, where 0.1 M phosphate buffer pH 7.4 was added instead of NADPH. The control compounds testosterone and 7-hydroxycoumarin were included in each experiment and all incubations were performed singularly for each compound.
(§4) Each compound was incubated for 0, 5, 15, 30, and 45 minutes. The control (minus NADPH) was incubated for 45 minutes only. The reactions were stopped by the addition of 50 μL methanol containing internal standard at the appropriate time points. The incubation plates were centrifuged at 2500 rpm for 20 minutes at 4° C. to precipitate the protein.
(§5) Following protein precipitation, the sample supernatants were combined in cassettes of up to 4 compounds and analysed using standard LC-MS/MS conditions.
(§6) From a plot of the natural logarithm of the peak area ratio (i.e., the ratio of compound peak area:internal standard peak area) against time, the gradient of the line was determined. Subsequently, half-life and intrinsic clearance were calculated using the equations below:
(§7) Eliminated rate constant (k)=(−gradient).

[4] = Rat liver microsomal stability assay; format: in vitro ADME; conditions: both sexes, pH 7.4; pooled rat liver microsomes 0.5 mg/mL, 3 μM compound, NADPH, 37° C., 45 min; read-out: Microsomal stability T1/2 Rat
Protocol: as §1, §2, §3, §4, §5, §6, §7

cannabinoid CB1 receptor = target: T2, cannabinoid CB1 receptor (Homo sapiens, UniProt P21554); test: PathHunter β-Arrestin assay (allosteric inhibition of agonist Emax); format: cell-based; conditions: HEK293 CB1 β-arrestin cells; concentration of modulator giving 50% reduction in agonist Emax; 60 min pre-incubation
T2 construct: host or cells: HEK293 CB1 β-arrestin cells
From the text: PathHunter™ enzyme fragment complementation is the most important method to measure β-arrestin recruitment. PathHunter™ β-Arrestin assays developed by DiscoveRX are revolutionary high-throughput screening assays for monitoring GPCR activation following ligand stimulation, without an imaging instrument, fluorescent protein tag, or radioactivity.
Instead, the assays detect GPCR activation through binding of β-arrestin to the expressed GPCR of interest, and measure the interaction of the two proteins using enzyme fragment complementation (EFC). The EFC approach offers a range of benefits for screening, including signal amplification and robust performance.
The larger portion of β-gal, termed EA for enzyme acceptor, is fused to the C-terminus of β-arrestin. The smaller, complementing fragment of β-gal, the ProLink™ tag, is expressed as a fusion protein with the GPCR of interest at the C-terminus. Upon activation, the GPCR is bound by β-arrestin. The interaction of β-arrestin and the GPCR forces the interaction of ProLink and EA, thus allowing complementation of the two fragments of β-gal and the formation of a functional enzyme capable of hydrolyzing substrate and generating a […] signal.
Using the PathHunter™ CB1 kit from DiscoveRX, a cannabinoid CB1 receptor agonist is added and activates the receptor, EA, which is fused to the C-terminus of β-arrestin, and then interacts with the ProLink™ tag which is fused to the CB1 receptor. This will result in the […] signal that is recorded by a luminescence plate reader. The […] signal is directly related to the activation of the receptor, therefore a higher concentration of agonist will yield a larger […] signal. The cannabinoid agonist is added in increasing concentrations to obtain an agonist dose response curve. With pre-incubation of a potential allosteric modulator, either an enhancement of agonist activity with an allosteric enhancer or a decrease in the maximal response of the agonist with an allosteric inhibitor is expected.
All raw data are obtained as luminescence (relative light units), and are normalised and presented as a percentage of the maximal response for the cannabinoid CB1 receptor agonist CP55,940 (2-[(1R,2R,5R)-5-hydroxy-2-(3-hydroxypropyl)cyclohexyl]-5-(2-methyloctan-2-yl)phenol).
The PathHunter™ β-Arrestin assay (from DiscoveRX, Fremont, USA) was performed as follows. HEK293 CB1 β-arrestin cells were plated 48 hours before use and incubated at 37° C., 5% CO2 in a humidified incubator. Test compounds were dissolved in dimethylsulfoxide (DMSO) and diluted in optimized cell culture (OCC, as supplied by DiscoveRX) media to the required concentrations. 5 μL of test compound or vehicle solution was added to each well and incubated for 60 minutes at 37° C., 5% CO2 in a humidified incubator. 5 μL of increasing concentrations of anandamide was added to each well followed by a 90-minute incubation at 37° C., 5% CO2 in a humidified incubator. 55 μL of detection reagent (as supplied by DiscoveRX) was then added, followed by a further 90 minute incubation at room temperature in the dark. Chemiluminescence, reported in relative light units (RLU—a dimensionless value, standardised as a % of maximum stimulation with anandamide), was measured on a standard luminescence plate reader.
Data were plotted as % of maximal stimulation (Emax) caused by agonist versus the logarithm of concentration of agonist, in the presence or absence of a fixed concentration of test compound (modulator) or vehicle. For example, stimulation in the presence of agonist alone will give a value for stimulation expressed in RLU, which can be expressed as a range from 0% (at lowest agonist concentration, e.g., 1 nM) to 100% (at the highest agonist concentration, e.g., 10 μM). […]

T1 sequence (P47746 whole entry): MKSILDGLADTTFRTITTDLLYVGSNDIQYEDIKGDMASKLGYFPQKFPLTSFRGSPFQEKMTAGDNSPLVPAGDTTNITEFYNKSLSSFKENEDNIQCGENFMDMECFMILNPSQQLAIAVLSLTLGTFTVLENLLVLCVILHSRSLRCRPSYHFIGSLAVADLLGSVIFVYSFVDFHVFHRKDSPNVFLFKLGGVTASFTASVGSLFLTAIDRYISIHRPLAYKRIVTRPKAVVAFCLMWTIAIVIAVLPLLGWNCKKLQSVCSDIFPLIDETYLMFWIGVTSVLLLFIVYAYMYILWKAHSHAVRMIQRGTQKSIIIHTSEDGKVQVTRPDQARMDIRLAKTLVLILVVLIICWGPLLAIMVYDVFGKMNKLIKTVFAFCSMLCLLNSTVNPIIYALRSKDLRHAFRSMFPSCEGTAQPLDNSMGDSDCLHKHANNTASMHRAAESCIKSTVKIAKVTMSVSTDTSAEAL
T2 sequence (P21554 whole entry): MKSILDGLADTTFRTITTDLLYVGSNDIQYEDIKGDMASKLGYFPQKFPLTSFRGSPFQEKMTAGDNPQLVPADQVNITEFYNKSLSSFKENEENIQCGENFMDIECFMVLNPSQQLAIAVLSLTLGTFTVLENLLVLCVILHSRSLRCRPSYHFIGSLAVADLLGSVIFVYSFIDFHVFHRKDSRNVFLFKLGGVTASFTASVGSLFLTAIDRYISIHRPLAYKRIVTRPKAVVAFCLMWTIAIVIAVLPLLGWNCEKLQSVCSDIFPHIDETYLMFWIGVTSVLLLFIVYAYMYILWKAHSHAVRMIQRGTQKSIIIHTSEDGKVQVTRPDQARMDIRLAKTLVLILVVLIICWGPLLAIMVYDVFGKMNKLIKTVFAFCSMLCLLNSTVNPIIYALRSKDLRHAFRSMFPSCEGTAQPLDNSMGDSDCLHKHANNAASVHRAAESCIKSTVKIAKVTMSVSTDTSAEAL

Row | half-life at 3 μM [3] [min] | half-life at 3 μM [4] [min] | IC50 (cannabinoid CB1 receptor) [µM] | melting point [°C] | Compound | effect on dissociation of radiolabelled CB1 receptor agonist CP55940 (CB1 receptor [1]) | effect on binding of CP55940 (CB1 receptor [2]) | effect on binding of radiolabelled inverse agonist SR141716A (CB1 receptor [2])
1 |  |  |  |  | CCc1c(C(=O)NC2CCN(Cc3ccccc3)C2)[nH]c2ccc(Cl)cc12 (stereo not shown) [ORG29647] | slowing of the dissociation | increase | decrease
2 |  |  |  |  | CCc1c(C(=O)NCCc2ccc(N(C)C)cc2)[nH]c2ccc(F)cc12 [ORG27759] | slowing of the dissociation | increase | decrease
3 | 39 | 48 |  |  | O=S(=O)(NCc1ccc(-c2ccc(F)nc2F)cc1)c1cc2cc(Cl)ccc2[nH]1 [Reference compound 3 (ABD1085), reference compound] |  |  | 
4 | 56 | 32 |  |  | O=S(=O)(NCc1ccc(-c2ccc(F)cc2F)cn1)c1cc2cc(Cl)ccc2[nH]1 [Reference compound 2 (ABD1075), reference compound] |  |  | 
5 | 174 | 292 | 0.001 | 243 to 245 | CCc1c(-c2nnc(Nc3ccc(F)cc3)o2)[nH]c2ccc(Br)cc12 [ABM338, 5-(5-Bromo-3-ethyl-1H-indol-2-yl)-N-(4-fluorophenyl)-1,3,4-oxadiazol-2-amine] |  |  | 
6 | 32 | 28 |  |  | CCc1c(C(=O)NCCc2ccc(N3CCCCC3)cc2)[nH]c2ccc(Cl)cc12 [Reference compound 1 (Org27569)] | slowing of the dissociation | increase | decrease
7 |  |  | 0.001 | 170 to 172 | CCc1c(-c2nnc(NCCc3ccccc3)o2)[nH]c2ccc(Br)cc12 [ABM320, 5-(5-Bromo-3-ethyl-1H-indol-2-yl)-N-phenethyl-1,3,4-oxadiazol-2-amine] |  |  | 
8 |  |  | 0.263 | 179 to 180 | Cc1c(-c2nnc(SCCCc3ccccc3)o2)[nH]c2ccc(Cl)cc12 [ABM323, 2-(5-Chloro-3-methyl-1H-indol-2-yl)-5-((3-phenylpropyl)thio)-1,3,4-oxadiazole] |  |  | 
9 |  |  | 0.03 | 183 to 185 | CCc1c(-c2nnc(SCc3ccccc3)o2)[nH]c2ccc(Br)cc12 [ABM305, 2-(Benzylthio)-5-(5-bromo-3-ethyl-1H-indol-2-yl)-1,3,4-oxadiazole] |  |  | 
10 |  |  | 0.005 | 265 to 267 | Fc1ccc(Nc2nnc(-c3cc4cc(Cl)ccc4[nH]3)o2)cc1 [ABM336, 5-(5-Chloro-1H-indol-2-yl)-N-(4-fluorophenyl)-1,3,4-oxadiazol-2-amine] |  |  | 
11 |  |  | 0.172 | 184 to 186 | c1ccc(CCSc2nnc(-c3cc4ccccc4[nH]3)o2)cc1 [ABM334, 2-(1H-Indol-2-yl)-5-(phenethylthio)-1,3,4-oxadiazole] |  |  | 
12 |  |  | 0.012 | 218 to 220 | CCc1c(-c2nnc(NCc3ccccc3)o2)[nH]c2ccc(Br)cc12 [ABM316, N-Benzyl-5-(5-bromo-3-ethyl-1H-indol-2-yl)-1,3,4-oxadiazol-2-amine] |  |  | 
13 | 46 | 40 | 0.058 | 180 to 182 | CCc1c(-c2nnc(SCc3ccccc3)o2)[nH]c2ccc(Cl)cc12 [ABM328, 2-(Benzylthio)-5-(5-chloro-3-ethyl-1H-indol-2-yl)-1,3,4-oxadiazole] |  |  | 
14 |  |  | 0.003 | 235 to 237 | Clc1ccc2[nH]c(-c3nnc(NCCc4ccccc4)o3)cc2c1 [ABM318, 5-(5-Chloro-1H-indol-2-yl)-N-phenethyl-1,3,4-oxadiazol-2-amine] |  |  | 
15 |  |  | 0.001 | 248 to 250 | CCc1c(-c2nnc(Nc3ccc(F)cc3)o2)[nH]c2ccc(Cl)cc12 [ABM335, 5-(5-Chloro-3-ethyl-1H-indol-2-yl)-N-(4-fluorophenyl)-1,3,4-oxadiazol-2-amine] |  |  | 
16 |  |  | 0.068 | 210 to 212 | COc1ccc(CSc2nnc(-c3[nH]c4ccc(Cl)cc4c3C)o2)cc1 [ABM301, 2-(5-Chloro-3-methyl-1H-indol-2-yl)-5-((4-methoxybenzyl)thio)-1,3,4-oxadiazole] |  |  | 
17 |  |  | 0.093 | 215 to 216 | Cc1c(-c2nnc(SCc3ccccc3)o2)[nH]c2ccc(Cl)cc12 [ABM321, 2-(Benzylthio)-5-(5-chloro-3-methyl-1H-indol-2-yl)-1,3,4-oxadiazole] |  |  | 
18 |  |  | 0.105 | 245 to 247 | Clc1ccc2[nH]c(-c3nnc(NCc4ccccc4)o3)cc2c1 [ABM314, N-Benzyl-5-(5-chloro-1H-indol-2-yl)-1,3,4-oxadiazol-2-amine] |  |  | 
19 | 40 | 23 | 0.019 | 185 to 187 | CCc1c(-c2nnc(SCc3ccc(F)cc3)o2)[nH]c2ccc(Br)cc12 [ABM340, 2-(5-Bromo-3-ethyl-1H-indol-2-yl)-5-((4-fluorobenzyl)thio)-1,3,4-oxadiazole] |  |  | 
20 |  |  | 0.002 | 268 to 270 | Cc1c(-c2nnc(Nc3ccccc3)o2)[nH]c2ccc(Cl)cc12 [ABM311, 5-(5-Chloro-3-methyl-1H-indol-2-yl)-N-phenyl-1,3,4-oxadiazol-2-amine] |  |  | 
21 |  |  | 0.085 | 195 to 197 | CCc1c(-c2nnc(SCc3ccc(C)cc3)o2)[nH]c2ccc(Cl)cc12 [ABM332, 2-(5-Chloro-3-ethyl-1H-indol-2-yl)-5-((4-methylbenzyl)thio)-1,3,4-oxadiazole] |  |  | 
22 |  |  | 0.417 | 222 to 224 | Cc1c(-c2nnc(SCCc3ccccc3)o2)[nH]c2ccc(Cl)cc12 [ABM322, 2-(5-Chloro-3-methyl-1H-indol-2-yl)-5-(phenethylthio)-1,3,4-oxadiazole] |  |  | 
